These are literature values, as cited in patent US6723530B1, “Polynucleotides encoding proexendin, and methods and uses thereof” (Amylin Pharmaceuticals, Inc., priority 1997, dated 2004).

The test system of series [1] is cultured islet cell lines. As to conditions: cultured islet cell lines in vitro.
Series [2] deals with GLP-1.
In series [3] the test system is guinea pig acinar cell preparations.

No end group written: not given here.

For exendin 4, in series [1], the cAMP accumulation result is “increase”, the glucose-dependent insulin secretion result is “stimulate” and the insulin gene expression entry is “increase”. The “mode of action towards GLP-1 (agonist / antagonist)” value in series [2] is “strong agonist”. Besides, in series [3], the cAMP levels entry is “increased”.

Consider “exendin 4(9-39)NH3: truncated exendin 4, competitive antagonist of both exendin 4 and GLP-1”, for which the “mode of action towards GLP-1 (agonist / antagonist)” value in series [2] was “competitive antagonist”.

In the case of “truncated GLP-1[7-36)-amide: truncated mammalian GLP-1 peptide amide (HAEGTFTSDVSSYLEGQAAKEFIAWLVKGR-NH2)”, the cAMP levels result in series [3] is “increased”.
